Assay: Bioavailability study: Modoflaner plasma concentration in dogs after oral gel capsule
Format: in vivo
Conditions: oral gelatin capsule, same dosage per kg body weight, 5 dogs per group
Description: The highest plasma concentration measured was set to 1 and the other plasma concentrations are given relatively to this highest value.
Ten dogs, divided into two groups comprising five animals each, were orally treated with a gel capsule containing either modification I or IV of Modoflaner at the same dosage of Modoflaner per kg body weight.
For kinetic evaluation, blood was sampled at predetermined time points (0, 0.5, 1, 2, 4, 6, 8, 24, 32, 48, 72 and 144 hours) before and after treatment (n=12 per dog). All samples were deep-frozen immediately after plasma preparation and stored at −18° C. or below until shipment to the analytical laboratory.
The samples were analyzed with regard to their concentration in Modoflaner.
The plasma samples were deproteinized by mixing 100 μL plasma with 900 μL of a mixture of 100 mL of 0.40 g ammonium acetate in 1 L water plus 100 μL formic acid and 600 mL acetonitrile, treatment for 30 s on a vortex mixer and subsequent centrifugation. The quantitative determination was performed by HPLC (Column ZORBAX Eclipse Plus C18 Rapid Resolution HD, 2.1×50 mm, 1.8 μm Agilent Technologies; Isocratic pump: Mobile phase: Solution of methanol/water (7+3, v/v)+10 mMol ammonium formate+0.12 mL/L formic acid Flow rate: 0.5 mL/min; Binary pump: Mobile phase A: water+10 mMol ammonium formate+0.12 mL/L formic acid Mobile phase B: methanol+10 mMol ammonium formate+0.12 mL/L formic acid Flow rate: 0.6 mL/min) with detection by tandem mass spectrometry using a Sciex API 5500 mass spectrometer (negative ionisation mode using the transition from Modoflaner precursor ion at m/z 714 to its product ion at m/z 694). The lower limit of quantitation was 1 μg/L.
For calculation of the mean values, results below the limit of quantitation were set to half the limit of quantitation.

Row | SMILES | Tmax [h] | Cmax relative to Cmax of crystalline modification I | Tmax (listed as modification IV) [h]
1 | O=C(Nc1cccc(C(=O)Nc2c(I)cc(C(F)(C(F)(F)F)C(F)(F)F)cc2C(F)(F)F)c1F)c1ccc(F)nc1 [crystalline modification I of Modoflaner, 6-fluoro-N-(3-(2-iodo-4-(perfluoropropan-2-yl)-6-(trifluoromethyl)phenylcarbamoyl)-2-fluoro-phenyl)-nicotinamide] | 32 |  | 
2 | O=C(Nc1cccc(C(=O)Nc2c(I)cc(C(F)(C(F)(F)F)C(F)(F)F)cc2C(F)(F)F)c1F)c1ccc(F)nc1 [6-fluoro-N-(3-(2-iodo-4-(perfluoropropan-2-yl)-6-(trifluoromethyl)phenylcarbamoyl)-2-fluoro-phenyl)-nicotinamide] |  | about 3 times | 4

Source: patent US12509425B2, “Tablet comprising modoflaner as an active component” (VIRBAC, priority 2020, dated 2025)
